# What was measured:
# [1] = biological target: T1, human amnionic whole cell cyclooxygenase-2 (WISH cells) (Homo sapiens, UniProt P35354); assay: IL-1β induced PGE2 production in WISH cells; format: cell-based; settings: for IC50: read-out: Wish IC50 (parenthetical value)
# T1 construct: endogenous in cells; host or cells: human amnionic WISH cells, induced with IL-1beta
# T1 sequence (P35354 18-604): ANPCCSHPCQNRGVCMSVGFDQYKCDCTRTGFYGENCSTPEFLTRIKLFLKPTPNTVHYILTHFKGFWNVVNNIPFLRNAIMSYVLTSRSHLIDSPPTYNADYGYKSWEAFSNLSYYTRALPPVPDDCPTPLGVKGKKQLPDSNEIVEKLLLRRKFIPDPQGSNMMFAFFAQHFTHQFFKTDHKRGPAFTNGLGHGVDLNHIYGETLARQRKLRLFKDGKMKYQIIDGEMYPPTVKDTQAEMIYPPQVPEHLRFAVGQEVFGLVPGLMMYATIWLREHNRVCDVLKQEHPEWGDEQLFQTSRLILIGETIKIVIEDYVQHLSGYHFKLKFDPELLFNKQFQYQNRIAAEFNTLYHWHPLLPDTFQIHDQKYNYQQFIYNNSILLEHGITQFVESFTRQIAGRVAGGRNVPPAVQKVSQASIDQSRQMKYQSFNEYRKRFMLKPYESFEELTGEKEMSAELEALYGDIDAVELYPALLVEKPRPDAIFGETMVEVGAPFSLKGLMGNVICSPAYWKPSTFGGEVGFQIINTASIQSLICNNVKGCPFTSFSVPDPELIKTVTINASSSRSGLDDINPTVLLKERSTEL
# Outline: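 PGE2 was quantified by enzyme immunoassay (optical density read) against standards made up in the matching medium. WISH cells at 80% confluence, washed and placed in serum-free Neuman-Tytell medium, received 5 ng/ml IL-1β plus test compound or DMSO vehicle (0.01% v/v).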
# [2] = biological target: T2, Human Whole Platelet Cyclooxygenase-1 (Homo sapiens, UniProt P23219); assay: Human Whole Platelet Cyclooxygenase-1 assay (HWPX); format: cell-based; settings: for IC50: read-out: HWPX IC50 (parenthetical value)
# T2 construct: from tissue; host or cells: human blood: isolated platelets (A4) or heparinised whole blood (A9)
# Outline: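 Thromboxane production was measured with a commercial kit after stimulation of washed human platelets (ACD-anticoagulated volunteer blood) by 8.8 μM final A23187 for 10 min. Test compounds were added 10 min before stimulus; cold 6 mM EDTA terminated the reaction.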
# [3] = test system: air pouch prostaglandin biosynthesis (Cox-2); assay: Carrageenan induced air pouch prostaglandin biosynthesis model (CAP); format: in vivo, rat; settings: for CAP % Inhib. @ 3 mpk / inhibition in vivo at 3 mg/kg: rat, 3 mpk; for inhibition in vivo at 3 mg/kg: 4 h, read-out: CAP % Inhib. @ 3 mpk; for ED50: Rattus norvegicus
# Description: To compare the mean responses of the treatment groups, analysis of variance was applied. Percent inhibition values were determined by comparing the individual treatment mean values to the mean of the control group. Linear regression was used to estimate IC50's/ED50's in appropriate assays.
# Carrageenan induced air pouch prostaglandin biosynthesis model (CAP) Air pouches are formed in the backs of male Sprague Dawley rats by injecting 20 mL of sterile air on day 0. Three days later the pouch was reinflated with an additional 10 mL of sterile air. On day 7, 1 mL of saline containing 0.2 % lambda carrageenan (Sigma Chemical Co.) is injected into the pouch to induce the inflammatory reaction that is characterized by the release of prostaglandins. Test compounds are dosed at 0.1 to 10 mg/kg 30 minutes prior to carrageenan. Four hours after the carrageenan injection the pouch is lavaged and levels of prostaglandins are determined by enzyme immuno-assay using commercially available kits. […] Values for Cox-2 inhibition that are parenthetical indicate ED50 values.
# [4] = biological target: T3, recombinant human Cox-2 (r-hu Cox-2) (Homo sapiens, UniProt P35354); assay: Recombinant human PGHS-2 enzyme assay (RHUCX2); format: biochemical; settings: for IC50: read-out: RHUCX2 IC50 (parenthetical value)
# T3 construct: made in house; host or cells: baculovirus/Sf9 insect cells (microsomes)
# T3 sequence (P35354 18-604): T1 sequence (P35354 18-604)
# Outline: (§1)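 PGE2 production measured by enzyme immunoassay with standards in the same milieu. Inhibition was computed versus control group mean and IC50 estimated by linear regression.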
# [5] = biological target: T4, recombinant human Cox-1 (r-hu Cox1) (Homo sapiens, UniProt P23219); assay: Recombinant human PGHS-1 enzyme assay (RHUCX1); format: biochemical
# T4 construct: made in house; host or cells: baculovirus/Sf9 insect cells (microsomes)
# Outline: as §1
# [6] = read-out: RHUCX1 % Inh. at Dose
# [7] = 100 μM, read-out: RHUCX1 % Inh. at Dose
# [8] = read-out: RHUCX2 % Inh. at Dose
# [9] = 1 μM, read-out: RHUCX2 % Inh. at Dose
# T4 sequence (P23219 24-599): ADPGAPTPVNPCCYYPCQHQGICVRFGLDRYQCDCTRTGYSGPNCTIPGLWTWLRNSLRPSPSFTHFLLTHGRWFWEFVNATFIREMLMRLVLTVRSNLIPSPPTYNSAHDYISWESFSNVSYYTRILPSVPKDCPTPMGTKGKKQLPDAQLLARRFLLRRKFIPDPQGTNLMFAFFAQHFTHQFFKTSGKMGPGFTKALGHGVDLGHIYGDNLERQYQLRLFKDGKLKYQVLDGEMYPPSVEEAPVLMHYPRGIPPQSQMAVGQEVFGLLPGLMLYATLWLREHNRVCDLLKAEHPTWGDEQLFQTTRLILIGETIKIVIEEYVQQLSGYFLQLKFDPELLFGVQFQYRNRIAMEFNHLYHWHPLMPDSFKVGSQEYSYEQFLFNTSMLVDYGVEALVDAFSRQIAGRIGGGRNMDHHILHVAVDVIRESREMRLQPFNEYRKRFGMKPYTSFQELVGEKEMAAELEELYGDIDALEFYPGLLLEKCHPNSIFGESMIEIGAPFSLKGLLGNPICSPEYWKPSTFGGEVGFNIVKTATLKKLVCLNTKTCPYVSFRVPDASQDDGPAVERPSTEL
# T2 sequence (P23219 24-599): as above
Molecule,IC50 [1] [nM],IC50 [2] [nM],inhibition in vivo at 3 mg/kg [3] [%],IC50 [4] [nM],melting point [°C],"inhibition at 100 µM [5, 7] [%]",further results
2-(3-Methyl-2-butenyl)-4-(4-fluorophenyl)-5-[3-fluoro-4-(aminosulfonyl)phenyl]-3(2H)-pyridazinone [Example 123],1,–,–,–,–,–,HWPX % Inhib. at Dose (μM) ([2]; 0.1 μM): 29 @ .1%; HWPX % Inhib. at Dose (μM) ([2]; 1 μM): 90 @ 1%; CAP % Inhib. @ 3 mpk [3]: 23%
2-(4-Fluorophenyl)-4-(4-fluorophenoxy)-5-[4-(aminosulfonyl)phenyl]-3(2H)-pyridazinone [Example 385],23,2180,–,–,–,–,CAP % Inhib. @ 3 mpk [3]: 65%
"CS(=O)(=O)c1ccc(-c2cnn(-c3ccc(F)c(F)c3)c(=O)c2-c2ccc(Cl)cc2)cc1 [Example 106, 2-(3,4-Difluorophenyl)-4-(4-chlorophenyl)-5-[4-(methylsulfonyl)phenyl]-3(2H)-pyridazinone]",30,17500,47,135,187 to 188,–,"inhibition at 200 µM ([5]; 200 μM, read-out: RHUCX1 % Inh. at Dose): 19%"
"NS(=O)(=O)c1ccc(-c2cnn(CC=C(F)F)c(=O)c2-c2ccc(F)cc2)cc1 [Example 143, 2-(3,3-Difluoro-2-propenyl)-4-(4-fluorophenyl)-5-[4-(aminosulfonyl)phenyl]-3(2H)-pyridazinone]",7,–,59,76,191 to 194,62,"inhibition at 10 µM [5, 6]: 43%"
"NS(=O)(=O)c1ccc(-c2cnn(Cc3ccc(F)c(F)c3F)c(=O)c2-c2ccc(F)cc2)cc1 [Example 153, 2-(2,3,4-Trifluorobenzyl)-4-(4-fluorophenyl)-5-[4-(aminosulfonyl)phenyl]-3(2H)-pyridazinone]",46,2950,51,62,218 to 220,54,"inhibition at 10 µM [5, 6]: 35%"
"Cc1cc(-c2c(-c3ccc(S(C)(=O)=O)cc3)cnn(-c3ccc(F)cc3)c2=O)ccc1F [Example 245, 2-(4-Fluorophenyl)-4-(4-fluoro-3-methylphenyl)-5-[4-(methylsulfonyl)phenyl]-3(2H)-pyridazinone]",46,–,47,1380,245 to 247,9,–
"CS(=O)(=O)c1ccc(-c2cnn(-c3ccc(F)c(Cl)c3)c(=O)c2C2CCCCC2)cc1 [Example 246, 2-(3-Chloro-4-fluorophenyl)-4-cyclohexyl-5-[4-(methylsulfonl)phenyl]-3(2H)-pyridazinone]",20,–,48,54,–,0,–
"CS(=O)(=O)c1ccc(-c2cnn(-c3ccc(F)c(Cl)c3)c(=O)c2Cc2ccccc2)cc1 [Example 248, 2-(3-Chloro-4-fluorophenyl)-4-benzyl-5-[4-(methylsulfonyl)phenyl]-3(2H)-pyridazinone]",5,–,49,80,–,13,"inhibition at 10 µM ([2]; 10 μM, read-out: HWPX % Inhib. at Dose): 17%; inhibition at 30 µM ([2]; 30 μM, read-out: HWPX % Inhib. at Dose): 82%"
CC(C)CCc1c(-c2ccc(S(C)(=O)=O)cc2)cnn(-c2ccc(F)c(F)c2)c1=O [Example 256],28,4700,47,134,55 to 58,0,–
"CC(C)CCOc1c(-c2ccc(S(C)(=O)=O)cc2)cnn(C(C)(C)C)c1=O [Example 330, 2-(tert-Butyl)-4-(3-methylbutoxy)-5-[4-(methylsulfonyl)phenyl]-3(2H)-pyridazinone]",5,16700,4.5,–,–,15,"inhibition at 0.01 µM [4, 8]: 5%; inhibition at 0.03 µM ([4]; 0.03 μM, read-out: RHUCX2 % Inh. at Dose): 72%; inhibition at 1 µM [4, 9]: 85%"
"CC(C)COc1c(-c2ccc(S(C)(=O)=O)cc2)cnn(-c2cccc(Cl)c2)c1=O [Example 335, 2-(3-Chlorophenyl)-4-(2-methylpropoxy)-5-[4-(methylsulfonyl)phenyl]-3(2H)-pyridazinone]",23,–,45,1,166 to 169,5,–
CC(C)(C)COc1c(-c2ccc(S(C)(=O)=O)cc2)cnn(-c2ccc(F)c(F)c2)c1=O [Example 349],41,–,63,86,126 to 128,0,"inhibition at 100 µM ([2]; 100 μM, read-out: HWPX % Inhib. at Dose): 34%"
"CC(C)=CCCOc1c(-c2ccc(S(C)(=O)=O)cc2)cnn(-c2ccc(F)c(F)c2)c1=O [Example 352, 2-(3,4-Difluorophenyl)-4-(4-methyl-3-penten-1-yloxy)-5-[4-(methylsulfonyl)phenyl]-5-3(2H)-pyridazinone]",–,5500,89,154,88 to 90,0,ED50 [3]: 5 mg/kg
"CC(C)CCc1c(-c2ccc(S(C)(=O)=O)cc2)cnn(-c2cccc(Cl)c2)c1=O [Example 366, 2-(3-Chloropenyl)-4-(3-methylbutyl)-5-[4-(methysulfonyl)phenyl]-3(2H)-pydazinone]",2,1620,63,30,60 to 65,0,ED50 [3]: 1.5 mg/kg
"CS(=O)(=O)c1ccc(-c2cnn(-c3cccc(Cl)c3)c(=O)c2Cc2ccccc2)cc1 [Example 367, 2-(3-Chlorophenyl)-4-benzyl-5-[4-(methylsulfonyl)phenyl]-3(2H)-pyridazinone]",18,–,48,77,174 to 177,0,"inhibition at 0.3 µM ([2]; 0.3 μM, read-out: HWPX % Inhib. at Dose): 8%; inhibition at 1 µM ([2]; 1 μM, read-out: HWPX % Inhib. at Dose): 50%"
"CC(C)CCOc1c(-c2ccc(S(N)(=O)=O)cc2)cnn(-c2cccc(Cl)c2)c1=O [Example 394, 2-(3-Chlorophenyl)-4-(3-methylbutoxy)-5-[4-(aminosulfonyl)phenyl]-3(2H)-pyridazinone]",19,–,70,–,137 to 139,86,"inhibition at 0.01 µM [4, 8]: 20%; inhibition at 0.1 µM ([4]; 0.1 μM, read-out: RHUCX2 % Inh. at Dose): 64%; inhibition at 1 µM [4, 9]: 94%; inhibition at 10 µM [5, 6]: 38%"
"CC(C)(O)COc1c(-c2ccc(S(C)(=O)=O)cc2)cnn(-c2ccc(F)c(F)c2)c1=O [Example 452, 2-(3,4-Difluorophenyl)-4-(2-hydroxy-2-methyl-1-propoxy)-5-[4-(methylsulfonyl)phenyl]-3(2H)-pyrridazinone]",–,–,–,–,–,–,Wish % Inhib. at Dose (μM) ([1]; 0.1 μM): 1 @ 0.1%; Wish % Inhib. at Dose (μM) ([1]; 1 μM): 56 @ 1%; CAP % Inhib. @ 3 mpk [3]: 71%; RHUCX2 % Inh. at Dose (μM) ([4]; 1 μM): 15 @ 1%; RHUCX1 % Inh. at Dose (μM) ([5]; 100 μM): 14 @ 100%

# — patent US20020028938A1, “Prostaglandin endoperoxide H synthase biosynthesis inhibitors” (priority 1997, published 2002)
